From ChEMBL document CHEMBL2401733 (Bioorg Med Chem Lett, 2013)
Converted amounts (≈) assume the structure as drawn.

What was measured:
[1] = Apparent permeability across apical to basolateral side in […] MDCK2 cells at 5 uM after 120 mins by LC/MS/MS analysis; assay type: ADME, cell-based, MDCK-II; settings: MDCK
[2] = Metabolic stability in human liver microsomes assessed as compound remaining at 1 uM after 30 mins; assay type: ADME, Microsome; settings: read-out: Stability
[3] = Metabolic stability in rat liver microsomes assessed as compound remaining at 1 uM after 30 mins; assay type: ADME, Microsome; settings: read-out: Stability
[4] = Lipophilicity, log P of the compound; assay type: physicochemical; settings: octanol/water
[5] = Metabolic stability in mouse liver microsomes assessed as compound remaining at 1 uM after 30 mins; assay type: ADME, Microsome; settings: read-out: Stability
[6] = target: T1, Serine/threonine-protein kinase PLK2 (Homo sapiens, UniProt Q9NYY3)
T1 sequence (Q9NYY3 whole entry): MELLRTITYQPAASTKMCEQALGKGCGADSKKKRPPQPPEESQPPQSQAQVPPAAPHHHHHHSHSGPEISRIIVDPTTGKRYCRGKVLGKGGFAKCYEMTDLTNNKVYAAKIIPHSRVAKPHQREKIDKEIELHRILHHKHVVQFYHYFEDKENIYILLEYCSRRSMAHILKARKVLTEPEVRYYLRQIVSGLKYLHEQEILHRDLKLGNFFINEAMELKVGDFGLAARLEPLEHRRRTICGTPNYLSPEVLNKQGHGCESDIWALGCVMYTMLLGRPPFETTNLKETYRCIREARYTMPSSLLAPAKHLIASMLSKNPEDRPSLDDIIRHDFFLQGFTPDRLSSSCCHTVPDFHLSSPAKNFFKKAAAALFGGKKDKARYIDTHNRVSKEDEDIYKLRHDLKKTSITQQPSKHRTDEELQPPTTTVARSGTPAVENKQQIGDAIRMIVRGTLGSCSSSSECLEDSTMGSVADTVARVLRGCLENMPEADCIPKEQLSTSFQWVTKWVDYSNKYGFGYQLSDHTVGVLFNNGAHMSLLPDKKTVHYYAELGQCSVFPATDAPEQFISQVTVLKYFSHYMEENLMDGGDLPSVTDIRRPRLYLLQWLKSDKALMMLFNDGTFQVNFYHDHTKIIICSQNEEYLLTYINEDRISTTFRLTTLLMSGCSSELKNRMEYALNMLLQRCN

[7] = target: T1, Serine/threonine-protein kinase PLK2; remark: listed apart in the source
Description: Inhibition of GST-tagged Plk2 (unknown origin) assessed as inhibition of DEKTDDED phosphorylation at Thr1342 after 60 mins by TR-FRET assay

[8] = test system: Rattus norvegicus; experiment: Inhibition of Plk2-mediated phosphorylation of alpha-synuclein at Ser129 in Sprague-Dawley rat cerebral cortex at 100 to 200 mg/kg, po measured at 6 hrs by ELISA relative to control; assay type: functional; settings: dose mg/kg 100-200
[9] = Ratio of drug level from brain to plasma in Sprague-Dawley rat at 200 mg/kg, po measured at 6 hrs; assay type: ADME, organism-based; design: dose 200 mg/kg, route oral; settings: brain and plasma, read-out: BPR
[10] = Ratio of drug level from brain to plasma in Sprague-Dawley rat at 100 mg/kg, po measured at 6 hrs; assay type: ADME, organism-based; design: dose 100 mg/kg, route oral; settings: brain and plasma, read-out: BPR
[11] = Drug uptake in Sprague-Dawley rat brain at 100 mg/kg, po measured at 6 hrs; assay type: ADME, organism-based; design: dose 100 mg/kg, route oral; settings: read-out: Drug uptake
[12] = Drug uptake in Sprague-Dawley rat brain at 200 mg/kg, po measured at 6 hrs; assay type: ADME, organism-based; design: dose 200 mg/kg, route oral; settings: read-out: Drug uptake
[13] = Plasma concentration in Sprague-Dawley rat at 200 mg/kg, po measured at 6 hrs; assay type: ADME, organism-based; design: dose 200 mg/kg, route oral
[14] = Plasma concentration in Sprague-Dawley rat at 100 mg/kg, po measured at 6 hrs; assay type: ADME, organism-based; design: dose 100 mg/kg, route oral
[15] = test system: MDR1; experiment: Efflux ratio of permeability across apical to basolateral side in […] MDCK cells expressing MDR1 at 5 uM after 120 mins by LC/MS/MS analysis; assay type: ADME, cell-based
[16] = target: Serine/threonine-protein kinase PLK1 (Homo sapiens, UniProt P53350); experiment: Inhibition of GST-tagged Plk1 (unknown origin) assessed as inhibition of DEKTDDED phosphorylation at Thr1342 after 60 mins by TR-FRET assay
Sequence of Serine/threonine-protein kinase PLK1 (P53350 whole entry): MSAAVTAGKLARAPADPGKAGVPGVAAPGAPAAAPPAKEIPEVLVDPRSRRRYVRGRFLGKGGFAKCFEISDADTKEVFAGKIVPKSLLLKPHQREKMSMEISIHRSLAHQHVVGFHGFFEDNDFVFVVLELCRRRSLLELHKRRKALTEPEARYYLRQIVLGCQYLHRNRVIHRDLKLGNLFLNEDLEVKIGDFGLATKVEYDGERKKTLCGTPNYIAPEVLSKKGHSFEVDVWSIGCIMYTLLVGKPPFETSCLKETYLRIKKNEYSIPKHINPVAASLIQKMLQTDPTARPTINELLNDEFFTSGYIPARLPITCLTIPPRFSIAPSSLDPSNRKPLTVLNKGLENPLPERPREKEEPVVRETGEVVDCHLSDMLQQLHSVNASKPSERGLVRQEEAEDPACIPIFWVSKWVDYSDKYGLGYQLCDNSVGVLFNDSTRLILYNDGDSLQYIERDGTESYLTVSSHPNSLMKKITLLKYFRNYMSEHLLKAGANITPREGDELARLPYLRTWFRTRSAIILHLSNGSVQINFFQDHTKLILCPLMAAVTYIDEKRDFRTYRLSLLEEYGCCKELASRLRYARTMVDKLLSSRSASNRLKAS

[17] = Solubility of the compound; assay type: physicochemical

Row | SMILES | Papp A→B at 2 h, 5 µM [1] [×10⁻⁶ cm/s] | remaining at 0.5 h, 1 µM [2] [%] | remaining at 0.5 h, 1 µM [3] [%] | logP ([4]; read-out: logP) | remaining at 0.5 h, 1 µM [5] [%] | IC50 [7] [nM] | also measured
1 | CC[C@@H]1C(=O)N(C)c2cnc(-n3ccnc3-c3ccc(F)cc3)nc2N1c1cn[nH]c1 | 8.7 | 73 | 82 | 1.8 | 66 |  | 
2 | CN1C(=O)C(CC(F)(F)F)N(CCC(F)(F)F)c2nc(-n3ccnc3-c3ccc(F)cc3)ncc21 (racemic) |  | 15 | 30 |  | 42 |  | 
3 | CCC1C(=O)N(C)c2cnc(-n3ccnc3-c3ccc(F)cc3)nc2N1C1CCC(F)(F)C1 (racemic) |  | 6 | 8 | 3.1 | 15 |  | 
4 | CCC1C(=O)N(C)c2cnc(-n3ccnc3-c3ccccc3)nc2N1c1cncnc1 (racemic) | 12.2 |  |  |  |  |  | IC50 [6]: 3870 nM
5 | CC[C@@H]1C(=O)N(C)c2cnc(-n3ccnc3-c3ccc(F)cc3)nc2N1[C@H]1CCOC1 | 23.4 | 58 | 67 | 2 | 63 | 33 | IC50 [6]: 2050 nM
6 | CC[C@@H]1C(=O)N(C)c2cnc(-n3ccnc3-c3ccc(F)cc3)nc2N1c1cnn(C)c1 | 21.2 | 69 | 86 | 2 | 50 |  | 
7 | CCC1C(=O)N(C)c2cnc(-n3ccnc3-c3ccccc3)nc2N1c1ccccc1 (racemic) |  | 21 | 5 | 3.3 | 28 | 17 | 
8 | CCC1C(=O)N(C)c2cnc(-n3ccnc3-c3ccc(F)cc3)nc2N1c1ccc(C#N)cc1 (racemic) |  | 63 | 48 | 2.7 | 49 | 31 | 
9 | CC[C@@H]1C(=O)N(C)c2cnc(-n3ccnc3-c3ccccc3)nc2N1c1cncnc1 |  | 55 | 76 | 1.3 | 60 | 44 | 
10 | CC[C@@H]1C(=O)N(C)c2cnc(-n3ccnc3-c3ccc(F)cc3)nc2N1c1ccn(C)n1 | 18.5 | 63 | 26 | 2.4 | 25 | 7 | inhibition (INH) [8]: 41%; Kp at 6 h [9]: 0.28; Kp at 6 h [10]: 0.36; concentration at 6 h [11]: 5.2 µM; concentration at 6 h [12]: 3.2 µM; concentration at 6 h [13]: 4880 ng/mL; concentration at 6 h [14]: 6290 ng/mL; efflux ratio at 2 h, 5 µM [15]: 1.1; IC50 [16]: 1350 nM; IC50 [6]: 480 nM
11 | CC[C@@H]1C(=O)N(C)c2cnc(-n3ccnc3-c3ccc(F)cc3)nc2N1c1ccnn1C |  | 74 | 80 | 1.9 | 72 |  | 
12 | CC[C@@H]1C(=O)N(C)c2cnc(-n3ccnc3-c3ccccc3)nc2N1C(C)C |  | 14 | 0 |  | 12 |  | logP [4]: Not Active
13 | CC[C@@H]1C(=O)N(C)c2cnc(-c3c[nH]nc3-c3nccs3)nc2N1C(C)C | 18.3 | 38 | 38 |  | 33 |  | solubility [17]: 100 µM (≈ 38.3 µg/mL)
14 | CC[C@@H]1C(=O)N(C)c2cnc(-n3ccnc3-c3ccc(F)cc3)nc2N1CCC(F)(F)F | 15.8 | 27 | 30 | 3.1 | 32 |  | 
15 | CC[C@@H]1C(=O)N(C)c2cnc(-c3cn[nH]c3-c3nccs3)nc2N1c1cn[nH]c1 | 6.6 | 84 | 48 |  | 57 |  | 
16 | CCC1(C)C(=O)N(C)c2cnc(-n3ccnc3-c3ccc(F)cc3)nc2N1CCC(F)(F)F (racemic) |  | 17 | 34 |  | 29 |  | 

Row | SMILES | Papp A→B at 2 h, 5 µM [1] [×10⁻⁶ cm/s] | remaining at 0.5 h, 1 µM [2] [%] | remaining at 0.5 h, 1 µM [3] [%] | logP ([4]; read-out: logP) | remaining at 0.5 h, 1 µM [5] [%] | IC50 [7] [nM] | also measured
17 | CC[C@@H]1C(=O)N(C)c2cnc(-n3ccnc3-c3ccccc3)nc2N1[C@@H]1CCOC1 |  | 10 | 0 | 1.8 | 27 |  | 
18 | CC[C@@H]1C(=O)N(C)c2cnc(-c3c[nH]nc3-c3ccc(F)cc3F)nc2N1c1cnn(C)c1 |  | 48 | 13 |  | 5 | 103 | 
19 | CC[C@@H]1C(=O)N(C)c2cnc(-c3c[nH]nc3-c3nccs3)nc2N1[C@H]1CCOC1 | 16.8 | 51 | 39 |  | 47 | 39 | IC50 [6]: 3190 nM
20 | CC[C@@H]1C(=O)N(C)c2cnc(-n3ccnc3-c3ccccc3)nc2N1CCC(F)(F)F |  | 0 | 0 | 3.1 | 2 |  | 
21 | CCC1C(=O)N(C)c2cnc(-n3ccnc3-c3ccc(F)cc3)nc2N1c1ccc(F)cc1 (racemic) |  | 47 | 11 | 3.4 | 41 |  | 
22 | CC[C@@H]1C(=O)N(C)c2cnc(-n3ccnc3-c3ccc(F)cc3)nc2N1C1COC1 |  | 74 | 80 | 1.6 | 74 | 1040 | IC50 [16]: > 50000 nM
23 | CCC1C(=O)N(C)c2cnc(-n3ccnc3-c3ccc(F)cc3)nc2N1c1cc[nH]n1 (racemic) | 13.2 | 72 | 65 | 2.2 | 67 | 9 | IC50 [6]: 740 nM
24 | CC[C@@H]1C(=O)N(C)c2cnc(-n3ccnc3-c3ccccc3)nc2N1C1CCCC1 | 11.4 | 0 | 0 |  | 0 | 5 | solubility [17]: 100 µM (≈ 40.3 µg/mL)
25 | CC(C)N1c2nc(-n3ccnc3-c3ccc(F)cc3)ncc2N(C)C(=O)C1(C)C |  | 54 | 10 |  | 25 | 2710 | IC50 [16]: > 100000 nM
26 | CC(C)N1c2nc(-n3ccnc3-c3ccc(F)cc3)ncc2N(C)C(=O)C12CCC2 |  | 4 | 1 |  | 7 |  | 
27 | CC[C@@H]1C(=O)N(C)c2cnc(-n3ccnc3-c3ccccc3)nc2N1[C@H]1CCOC1 |  | 17 | 13 | 1.9 | 51 |  | 
28 | CC[C@@H]1C(=O)N(C)c2cnc(-n3ccnc3-c3ccc(F)cc3)nc2N1C1CC(F)(F)C1 |  | 19 | 14 | 3 | 30 |  | 
29 | CC[C@@H]1C(=O)N(C)c2cnc(-c3cn[nH]c3-c3nccs3)nc2N1C1CCOCC1 | 18.9 | 47 | 39 |  | 44 |  | 
30 | CCC1C(=O)N(C)c2cnc(-c3cn[nH]c3-c3nccs3)nc2N1c1cnn(C)c1 (racemic) |  |  |  |  |  | 130 | 
31 | CCC1C(=O)N(C)c2cnc(-c3cn[nH]c3-c3ccccn3)nc2N1c1cnn(C)c1 (racemic) | 10.1 | 88 | 87 |  | 64 | 168 | 
